In BindingDB's records for doi:10.1038/nchembio.2195 (University of Texas M. D. Anderson Cancer Center, 2016):

Assays:
[1] = target: Alpha-enolase (Homo sapiens, UniProt P06733); assay: Enolase Enzymatic Assays; details: pH 7.4
Procedure: (§1) Enolase activity was measured by two different methods: a fluorometric NADH-linked assay or adirect spectrophotometric assay via formation of PEP. In the fluorescent assay,enolase activity was measured via NADH oxidation in a pyruvate kinase-dehydrogenase coupled assay. The assay is conducted in 10 mM KCl, 5 mM MgSO4, and 100 mM triethanolamine at pH 7.4, with 400 uM NADH and 2 mM ADP. 2-PGA, pyruvate kinase (PK) and lactate dehydrogenase(LDH) are provided in excess, with conversion of 2-PGA to PEP by enolase being rate limiting. PEP (with ADP) is substrate of PK; pyruvate formed by thisreaction is linked to NADH oxidation by LDH. Enolase activity is determinedby fluorescence measurement of oxidation of NADH by excitation at 340 nmand emission at 460 nm. The substrate concentration was 5 mM 2-PGA unlessotherwise indicated. Fluorescence was measured using an Omega FluorescencePlate Reader (BMG Labtech). Alternatively, enolase activity was measured directly by the appearance of PEP from 2-PGA via absorption at 240 nm. The assay medium was the same, except that all the auxiliary reagents (PK or LDH, NADH and ADP) are omitted. Both assays were conducted in a 96-well plate format, with the direct assay performed in UV-transmissible plates.

[2] = target: Gamma-enolase (Homo sapiens, UniProt P09104); assay: Enolase Enzymatic Assays; details: pH 7.4
Chain of Gamma-enolase (P09104 whole entry): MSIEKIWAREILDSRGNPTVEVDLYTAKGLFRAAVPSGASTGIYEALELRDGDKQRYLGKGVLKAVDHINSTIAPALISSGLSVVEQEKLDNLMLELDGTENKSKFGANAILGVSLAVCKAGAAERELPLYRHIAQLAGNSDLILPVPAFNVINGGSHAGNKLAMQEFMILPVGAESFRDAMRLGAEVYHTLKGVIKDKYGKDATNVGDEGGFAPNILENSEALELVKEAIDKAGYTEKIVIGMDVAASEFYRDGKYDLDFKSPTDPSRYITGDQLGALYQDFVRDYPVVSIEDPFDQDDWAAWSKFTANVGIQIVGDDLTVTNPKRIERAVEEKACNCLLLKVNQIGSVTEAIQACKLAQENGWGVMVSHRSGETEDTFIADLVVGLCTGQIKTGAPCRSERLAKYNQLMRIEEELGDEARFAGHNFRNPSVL
Procedure: as §1

Chain of Alpha-enolase (P06733 whole entry): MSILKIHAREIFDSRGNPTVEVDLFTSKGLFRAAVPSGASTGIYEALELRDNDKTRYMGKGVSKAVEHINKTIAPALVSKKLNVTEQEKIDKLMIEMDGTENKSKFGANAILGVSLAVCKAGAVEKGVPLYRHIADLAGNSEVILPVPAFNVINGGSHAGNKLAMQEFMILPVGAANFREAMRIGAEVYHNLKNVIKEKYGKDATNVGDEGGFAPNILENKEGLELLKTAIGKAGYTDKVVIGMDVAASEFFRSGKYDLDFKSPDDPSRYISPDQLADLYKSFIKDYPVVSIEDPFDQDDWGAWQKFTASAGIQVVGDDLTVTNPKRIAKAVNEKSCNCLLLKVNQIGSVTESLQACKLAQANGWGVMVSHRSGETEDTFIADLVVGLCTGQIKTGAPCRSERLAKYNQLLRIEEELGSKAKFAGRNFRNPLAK

O=C1[C@@H](P(=O)(O)O)C[C@H](O)N1O [SF2312]
IC50 [1]: 37.9 nM
IC50 [2]: 42.5 nM

O=C(CP(=O)(O)O)NO [phosphonoacetohydroxamate (PhAH)]
IC50 [1]: 53.2 nM
IC50 [2]: 62.3 nM
